Reference: patent US20160287589A1, “SUBSTITUTED-IMIDAZOPYRIDAZINES” (BAYER PHARMA AKTIENGESELLSCHAFT, priority 2013, published 2016)

Key:
[1] = biological target: T1, MKNK1 (Homo sapiens, UniProt Q9BUB5, T385D); assay: MKNK1 kinase assay (MKNK1 TR-FRET assay); type: biochemical; conditions: Table 1d; 10 μM ATP, 15 min preincubation
T1 construct: GST (N); purchased Carna Biosciences 02-145; host or cells: insect cells (baculovirus expression system)

[2] = biological target: T1, MKNK1; assay: MKNK1 kinase high ATP assay (TR-FRET-based); type: biochemical; conditions: Table 2d; 2 mM ATP, 15 min preincubation
In short: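 GST-tagged full-length human MKNK1 (aa 1-424, T344D) from insect cells, preincubated with compound 15 min at 22 °C. Reaction 30 min at 22 °C with 2 mM ATP and 0.06 μM biotinylated peptide in HEPES pH 7.5, Mg2+, DTT. Phosphopeptide detected by TR-FRET (665/622 ratio) with anti-pS6 (pSer236) antibody; normalised to no-inhibitor and no-enzyme controls.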

T1 sequence (Q9BUB5 1-424 isoform Q9BUB5-2 T344D): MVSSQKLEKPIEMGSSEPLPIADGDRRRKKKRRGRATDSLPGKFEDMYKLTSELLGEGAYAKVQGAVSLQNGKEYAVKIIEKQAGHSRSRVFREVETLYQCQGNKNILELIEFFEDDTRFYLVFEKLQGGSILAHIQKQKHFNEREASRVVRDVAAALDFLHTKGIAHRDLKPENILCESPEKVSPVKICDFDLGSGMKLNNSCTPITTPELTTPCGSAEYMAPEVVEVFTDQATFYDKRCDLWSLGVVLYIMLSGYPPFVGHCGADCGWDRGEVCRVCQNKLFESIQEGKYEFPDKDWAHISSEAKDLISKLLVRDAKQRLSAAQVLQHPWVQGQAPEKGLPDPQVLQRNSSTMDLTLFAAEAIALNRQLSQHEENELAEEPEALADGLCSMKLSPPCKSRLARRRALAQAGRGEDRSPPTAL

SMILES | IC50 [1] [nM] | IC50 [2] [nM]
COc1nccc2oc(-c3cnc4ccc(OC[C@H]5CN(C(=O)C6CC6)CCO5)nn34)cc12 [IV-8, Cyclopropyl[(2R)-2-({[3-(4-methoxyfuro[3,2-c]pyridin-2-yl)imidazo[1,2-b]-pyridazin-6-yl]oxy}methyl)morpholin-4-yl]methanone] | 4 | 10
COc1nccc2oc(-c3cnc4ccc(OC[C@H]5CN(C(=O)C(F)(F)F)CCO5)nn34)cc12 [IV-10, 2,2,2-Trifluoro-1-[(2R)-2-({[3-(4-methoxyfuro[3,2-c]pyridin-2-yl)imidazo-[1,2-b]pyridazin-6-yl]oxy}methyl)morpholin-4-yl]ethanone] | 7 | 17
COc1nccc2oc(-c3cnc4ccc(OC[C@H]5CN(C(=O)C(C)(C)C)CCO5)nn34)cc12 [IV-11, 1-[(2R)-2-({[3-(4-Methoxyfuro[3,2-c]pyridin-2-yl)imidazo[1,2-b]pyridazin-6-yl]oxy}-methyl)morpholin-4-yl]-2,2-dimethylpropan-1-one] | 6 | 25
CC(C)Oc1nccc2oc(-c3cnc4ccc(OC[C@H]5CNCC(=O)N5)nn34)cc12 [IV-13, (6R)-6-[({3-[4-(Propan-2-yloxy)furo[3,2-c]pyridin-2-yl]imidazo[1,2-b]pyridazin-6-yl}oxy)methyl]piperazin-2-one] | 22 | 43

Further lines, results first:

IC50 [1] [nM] | IC50 [2] [nM] | SMILES
2 | 4 | CC(C)Oc1nccc2oc(-c3cnc4ccc(OC[C@H]5CCC(=O)N5)nn34)cc12 [IV-4, (5R)-5-[({3-[4-(Propan-2-yloxy)furo[3,2-c]pyridin-2-yl]imidazo[1,2-b]pyridazin-6-yl}oxy)methyl]pyrrolidin-2-one]
2 | 4 | CC(C)(C)COc1nccc2oc(-c3cnc4ccc(OC[C@H]5CCC(=O)N5)nn34)cc12 [IV-5, (5R)-5-[({3-[4-(2,2-Dimethylpropoxy)furo[3,2-c]pyridin-2-yl]imidazo[1,2-b]-pyridazin-6-yl}oxy)methyl]pyrrolidin-2-one]
4 | 8 | COc1nccc2oc(-c3cnc4ccc(OC[C@H]5CCC(=O)N5)nn34)cc12 [IV-6, (5R)-5-({[3-(4-Methoxyfuro[3,2-c]pyridin-2-yl)imidazo[1,2-b]pyridazin-6-yl]-oxy}methyl)pyrrolidin-2-one]
1 | 4 | CC(C)(C)C(=O)N1CCC[C@H]1CCOc1ccc2ncc(-c3cc4cnccc4o3)n2n1 [IV-7, 1-[(2S)-2-(2-{[3-(Furo[3,2-c]pyridin-2-yl)imidazo[1,2-b]pyridazin-6-yl]-oxy}ethyl)pyrrolidin-1-yl]-2,2-dimethylpropan-1-one]
3 | 9 | COc1nccc2oc(-c3cnc4ccc(OCC5CCCC(=O)N5)nn34)cc12 (centres unmarked) [IV-9, 6-({[3-(4-Methoxyfuro[3,2-c]pyridin-2-yl)imidazo[1,2-b]pyridazin-6-yl]oxy}-methyl)piperidin-2-one]
1 | 2 | CCNc1nccc2oc(-c3cnc4ccc(OC[C@H]5CCC(=O)N5)nn34)cc12 [IV-14, (5R)-5-[({3-[4-(Ethylamino)furo[3,2-c]pyridin-2-yl]imidazo[1,2-b]pyridazin-6-yl}oxy)methyl]pyrrolidin-2-one]
